Experimental data: patent US9458101B2 (priority 2009, dated 2016)

Experiments:
CEM cells [1] = type: cell-based, Human
[2] = test system: MCF-7 (Human mammary gland adenocarcinoma); experiment: Cytotoxicity testing (MTS) on MCF-7; type: cell-based
Procedure, shortened: (§1)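 Cells plated at optimal densities set by preliminary MTS growth tests (72 and 96 h) and exposed to compound dilutions whose concentrations were checked by absorbance-derived extinction coefficients. Viability read by MTS; data fitted to a two-plateau dose-response model normalized to Itop−Ibot.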

CEM cells [3] = experiment: HPLC-UV profile of treated CEM cells; type: cell-based, Human; conditions: for expression of MHC (class I) receptor, HPLC peak intensity: eluted at 53 min; for apoptotic protein signal, HPLC peak intensity: eluted at 57 min
Experimental: Digested cell samples were fractionated with a Gold HPLC chromatograph system equipped with a Gold 166 Ultra Violet (UV) Detector and 32-Karat software (Beckman-Coulter, Mississauga, ON, Canada). For reversed-phase HPLC, a Vydac 218 TP54 Protein & Peptide C18 analytical column, 300 Å pore size, 0.46 cm×25 cm (Separation Group, Hesperia, Calif., U.S.A.) was used. The chromatograph was equipped with a Rheodyne injector (5 μL). UV detection was performed at 245 nm. Eluent A consisted of 5% acetonitrile (ACN) water solution and eluent B of 0.01% trifluoroacetic acid in 95% ACN water solution. A linear gradient from 5 to 70% ACN was applied over 60 min.
It was assumed that signals eluted at 30-35 min were unreacted derivatives with variable intensity of 0.1 V for (28) and (35) as well as 0.35 V for (13) and 0.9 V for (6). […] An additional signal eluted at 57 min occurred in samples treated with (35) and (28) (FIGS. 10D and 10E). The signals at 57 min differ at about 5 min in elution present one from cascade of apoptotic protein in treated cells. The peak intensity of 0.3 V (28) and 0.2 V (35) corresponded to viability of cells 38% (28) and 35% (35) and unreacted derivatives 0.1 (28), 0.1 (35), respectively. The undefined additional peaks with very low intensities, less then 0.05 V, are the metabolites of derivatives or unreacted compounds.

[4] = test system: CEM (Human T-lymphoblastoid from ALL); experiment: Cytotoxicity testing (MTS) on CEM; type: cell-based
Procedure, shortened: as §1

[5] = test system: A549, HeLa, MCF-7 and CEM cell lines; experiment: Cytotoxicity, mean over A549, HeLa, MCF-7 and CEM cell lines; conditions: mean over A549, HeLa, MCF-7 and CEM cell lines
Procedure, shortened: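 MTS viability (CellTiter 96 AQueous One) on A549, HeLa, MCF-7 and CEM cells seeded at pre-optimized densities from 72 and 96 h growth tests. Responses normalized to Itop−Ibot, with Itop the response at very low/no drug; value is the mean across the four lines.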

M006X (Human glioma) = experiment: Cytotoxicity testing (MTS) on M006X; type: cell-based
Experimental: (§2) Cell lines used were A549 (Human lung carcinoma), HeLa (Human cervical carcinoma), MCF-7 (Human mammary gland adenocarcinoma), CEM (Human T-lymphoblastoid from ALL (Acute lymphoblastic leukemia)), M010B (Human glioma), M006X (Human glioma) and Jurkat (Human T-cell leukemia).
(§3) A series of dilutions were prepared and a wavelength scan of the diluted solution was used to determine the wavelength of maximum absorbance for each compound. Five standardized drug concentrations were scanned at this pre-determined wavelength to obtain an estimate of the compound's extinction coefficient.
(§4) A primary MTS assay was used to test the optimal number of cells for cytotoxicity assays. Cells were trypsinized, counted and introduced into seven lanes of a 96-well plate at different cell numbers (eight replicates per lane). Optimal cell numbers were determined after 72 and 96 hours of growth and were used in subsequent cytotoxicity assays. […] Cell viability was determined using the Cell Titer 96 AQueous One Solution Cell Proliferation Assay (Promega, U.S.A.).
(§5) Fits were performed using a dose-response model ideal for data showing an initial response plateau, a transition region, and a final response plateau.
(§6) [formula] […] Itop is the response obtained at very low/no drug concentration. The data and all parameters were normalized to Itop−Ibot, a measure of the maximum effect of the drug.

M010B (Human glioma) = experiment: Cytotoxicity testing (MTS) on M010B; type: cell-based
Experimental: as §2, §3, §4, §5, §6

[6] = test system: HeLa (Human cervical carcinoma); experiment: Cytotoxicity testing (MTS) on HeLa; type: cell-based
Procedure, shortened: as §1

[7] = test system: A549 (Human lung carcinoma); experiment: Cytotoxicity testing (MTS) on A549; type: cell-based
Procedure, shortened: as §1

CEM cells [8] = experiment: Viability of 3-D CEM cell cultures in Hollow Fiber Bioreactor (HFB), trypan blue; type: cell-based, Human; conditions: for viability of cell cultures: samples analysed by HPLC; for number of viable cells: HFB, decreased from 10^9 cells/mL, 1000 nM, within 72 h; for viability of cells in HFB: after 3 days of treatment
Experimental: CEM cells (American Type Culture Collection, Manassas, Va.) were maintained in tissue culture flasks and cultured as monolayer in 20 mL of RPMI media containing 10% Fetal Bovine Serum (FBS). When the number of cells in the culture flask reached 5-6×10^6 cells/mL the culture was harvested and then inoculated into six Hollow Fiber Bioreactors (HFB, FiberCells System, Frederick, Md.) and were continuously cultured in 37° C. and 5% CO2. HFB consists of a single, hydrophylic and polysulfone fiber with 0.1 μm diameter pores. The media circulating within the HFB cartridge and polysulphone tubing, at flow rate of 14 mL/min, brings oxygen and nutrients to cells and removes CO2 and other waste. Collagen solution was used to create an extra cellular matrix between the cells and the fiber. The polysulphone fiber was coated with protein by flushing with 10 mL of coating solution containing 1 mg collagen per 1 mL Phosphate Buffered Saline (PBS). The pH was maintained in the extra-capillary space throughout the duration of experiments between 6.8 and 7.0. Due to the perfusion the HFB absorbed sufficient oxygen from the reservoir with fresh media to keep cells alive. The perfusion medium was changed weekly when the glucose level reached 2 g/L measured with a glucometer.
Viability was assessed using trypan blue (K. Takahashi, G. Loo, Biochem. Pharm. 67 (2004) 315-324). Briefly, CEM cells were harvested from HFB, seeded in 6 well microplates and exposed to 0.4% (w/v) trypan blue dye solution. Cell number was determined manually with a hemacytometer chamber (Hausser Scientific, Horsham, Pa.).
Approximately 4×10^4 CEM cells/ml were treated on culture plates and placed for the 72 h incubation with (2-16) and (28-38) derivatives. All compounds were used for in vitro experiments and then the derivatives were selected for HFB studies to treat 10^9 CEM cells/mL in the 3-D cultures. The cells were treated 4 weeks after the cells' inoculation in the HFB. After 72 h, the growth was inhibited over 50% for 20 nM and higher concentrations in cells treated with (6), (13), (28) and (35).
CEM cells, American Type Culture Collection (Manassas, Va.), were maintained in tissue culture flasks and cultured as monolayer in 20 ml of RPMI media containing 10% Fetal Bovine Serum (FBS) and divided from 5×10^5 cells/mL to 2.5×10^4 cells/mL two times per week. When the number of the cells in the culture flask reached 5-6×10^6 cells/ml the culture was harvested and then inoculated into six Hollow Fiber Bioreactors (HFB, FiberCells System Inc., Frederick, Md.) and then continuously cultured in 37° C. and 5% CO2. The HFB consists of a single, hydrophylic and polysulfone fiber with 0.1 μm diameter pores. The media circulate within the HFB cartridge and polysulphone tubing, at flow rate of 14 mL/min, bringing oxygen and nutrients to cells and removing CO2 and other waste. Collagen solution was used to create an extracellular matrix between cells and fiber. The polysulfone fiber was coated with protein by flushing with 10 mL of coating solution containing 1 mg collagen per 1 mL Phosphate Buffered Saline (PBS). In this manner, CEM cells growing originally in suspension build up a 3-D solid tumor. During 4 weeks of culturing, the media were replaced each week.
The number of cells was determined using Trypan blue (Sigma-Aldrich, Oakville, ON) exclusion method (K. Takahashi, G. Loo, Biochem. Pharmacol. 67 (2004) 315-324). Briefly, CEM cells were harvested from HFB, seeded in 6 well microplates and exposed to 0.4% (w/v) trypan blue dye solution. Cell number was determined manually with a hemacytometer chamber (Hausser Scientific, Horsham, Pa.).

CEM cells [9] = experiment: 19F MRI signal intensity of treated 3-D CEM cultures in HFB (cell number with fluorine uptake); type: cell-based, Human; conditions: for mean CEM cell density in the region with lower densities / mean number of cells in the region with higher cell densities: MRI; for mean cell concentration corresponding to mean 19F SI: cells with fluorine derivative uptake
Experimental: All MRI experiments were performed using a 9.4 Tesla with 21 cm bore magnet (Magnex, U.K.) and TMX console (NRC-IBD, Canada). ^19F MR images were acquired using double (^19F and ^1H) tuned transmit/receive radio frequency (RF) volume coil operating at 376 MHz and 400 MHz corresponding to ^19F and ^1H Larmour frequency at 9.4 Tesla, respectively. ^1H MR images were collected in the same imaging session that ^19F MRI. Proton MR provided anatomical images of the culture. The MRI images monitored the localization of cells around the fiber in HFB as well as the volume of the cells. Moreover, ^19F MRI selectively visualizes only intracellular fluorine uptake with no background, therefore allows cell count. The cells before and after treatment with (6), (13), (28) and (35) were imaged with ^1H MRI, this allowed changes to be observed in the 3-D cell aggregation. The cells treated with 20 nM (28) and (35) were also imaged with ^19F MRI to measure fluorine content using ^19F NMR signal intensity (SI) in each HFB treated with (28) and (35). […] To obtain the calibration curves (for each derivative separately) the phantoms consisting of HFB tubes filled with 1 nM, 10 nM, 20 nM, 100 nM, 500 nM and 1000 nM of (28) or (35) and 10^3 cells, 10^4 cells, 10^5 cells, 10^6 cells, 10^7 cells, 10^8 cells and 10^9 cells were used. The linear regression was used to find the SI dependence on cell numbers. The cell numbers estimated from ^19F MR imaging were compared to the cell viability obtained from trypan blue assays. […] One 1 mm slice was acquired with a matrix size of 256×256 and a field of view of 3×3 cm for both ^19F and ^1H.

COc1c(O)cc2c(c1OC)-c1ccc(SC)c(=O)cc1[C@@H](N(C(C)=O)C(=O)CNC(=O)C(F)(F)F)CC2 [Compound 47, N-[(7S)-3-hydroxy-1,2-dimethoxy-10-methylsulfanyl-9-oxo-5,6,7,9-tetrahydrobenzo[α]heptalen-7-yl]-N-[(trifluoroacetyl)glycyl]acetamide]
fold lower IC50 than IC50 of (39) (CEM cells [1]): about 8 fold

CCOc1cc2c(c(OC)c1OC)-c1ccc(SC)c(=O)cc1[C@@H](N(C(C)=O)C(=O)CNC(=O)C(F)(F)F)CC2 [Compound 49, N-[(7S)-3-ethoxy-1,2-dimethoxy-10-methylsulfanyl-9-oxo-5,6,7,9-tetrahydrobenzo[α]heptalen-7-yl]-N-[(trifluoroacetyl)glycyl]acetamide]
fold lower IC50 than IC50 of (39) (CEM cells [1]): about 8 fold

COc1cc2c(c(-c3cccnc3)c1OC)-c1ccc(OC)c(=O)cc1[C@@H](NC(C)=O)CC2 [Compound 13, N-[(7S)-2,3,10-trimethoxy-9-oxo-1-((pyridin(3))yl)-5,6,7,9-tetrahydrobenzo[α]heptalen-7-yl]acetamide]
Fraction of cells that survive at the highest drug concentrations (Ibot) [2]: 0.364 ± 0.038 | logIC50 [2]: −5.19 ± 0.09 log10 M | expression of MHC (class I) receptor, HPLC peak intensity (CEM cells [3]): 0.05 V | Fraction of cells that survive at the highest drug concentrations (Ibot) [4]: −0.026 ± 0.039 | logIC50 [4]: −5.50 ± 0.10 log10 M | IC50 [log10 M] (mean logIC50) [5]: −5.13 ± 0.17 log10 M | Fraction of cells that survive at the highest drug concentrations (Ibot) (M006X (Human glioma)): 0.055 ± 0.046 | logIC50 (M006X (Human glioma)): −5.67 ± 0.12 log10 M | Fraction of cells that survive at the highest drug concentrations (Ibot) (M010B (Human glioma)): 0.305 ± 0.053 | logIC50 (M010B (Human glioma)): −4.90 ± 0.09 log10 M | Fraction of cells that survive at the highest drug concentrations (Ibot) [6]: 0.059 ± 0.059 | logIC50 [6]: −5.33 ± 0.14 log10 M | Fraction of cells that survive at the highest drug concentrations (Ibot) [7]: 0.218 ± 2.644 | logIC50 [7]: −4.51 ± 0.32 log10 M | viability of cell cultures (CEM cells [8]): 45%±2

C=CCOc1cc2c(c(OC)c1OC)-c1ccc(SC)c(=O)cc1[C@@H](N(C(C)=O)C(=O)CNC(=O)C(F)(F)F)CC2 [Compound 48, N-[(7S)-1,2-dimethoxy-10-methylsulfanyl-9-oxo-3-(prop-2-enoxy)-5,6,7,9-tetrahydrobenzo[α]heptalen-7-yl]-N-[(trifluoroacetyl)glycyl]acetamide]
fold lower IC50 than IC50 of (39) (CEM cells [1]): about 8 fold

COc1cc2c(c(OCc3cccnc3)c1OC)-c1ccc(OC)c(=O)cc1C(NC(=O)CNC(=O)C(F)(F)F)CC2 (stereo not drawn) [Compound 35]
expression of MHC (class I) receptor, HPLC peak intensity (CEM cells [3]): 0.7 V | apoptotic protein signal, HPLC peak intensity (CEM cells [3]): 0.2 V | mean CEM cell density in the region with lower densities (CEM cells [9]): 1.4×10^8 cells/mL | mean number of cells in the region with higher cell densities (CEM cells [9]): 4.8×10^8 cells/mL | mean cell concentration corresponding to mean 19F SI (CEM cells [9]): 6.9×10^8 cells/mL | number of viable cells (CEM cells [8]): 2.9×10^8 cells/mL | viability of cells in HFB (CEM cells [8]): 30% | viability of cell cultures (CEM cells [8]): 35%±5

CCOc1c(OC)c(OC)cc2c1-c1ccc(OC)c(=O)cc1[C@@H](NC(=O)CNC(=O)C(F)(F)F)CC2 [Compound 28]
apoptotic protein signal, HPLC peak intensity (CEM cells [3]): 0.3 V | mean CEM cell density in the region with lower densities (CEM cells [9]): 2.4×10^8 cells/mL | mean number of cells in the region with higher cell densities (CEM cells [9]): 3.5×10^8 cells/mL | mean cell concentration corresponding to mean 19F SI (CEM cells [9]): 6.03×10^8 cells/mL | number of viable cells (CEM cells [8]): 3.45×10^8 cells/mL | viability of cells in HFB (CEM cells [8]): 35% | viability of cell cultures (CEM cells [8]): 38%±4
